Reference: ChEMBL document CHEMBL1201862, “PubChem BioAssay data set” (2004)
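Protocol summary: plate cells (96-well), add compound at 5 concentrations, incubate 48 h, interpolate endpoints linearly. GI50: concentration for 50% inhibition of growth.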 Active and inactive are the calls of the source. Cut-off read from the data, not from the text of the source: active = GI50 up to about 1.1 µM and inactive = higher.

Legend:
Assay in all cases: inhibition of tumour cell growth, NCI panel, 48 h
RXF 631 = system: RXF 631
KM-20L2 = system: KM-20L2
DMS-114 = system: DMS-114
M19-MEL = system: M19-MEL
HOP-18 = system: HOP-18
LXFL 529 = system: LXFL 529
DLD-1 = system: DLD-1
DMS-273 = system: DMS-273
XF498 = system: XF498

Measured: GI50

S=C1CNC(=S)CN1
inactive: RXF 631 > 100 µM | KM-20L2 > 100 µM | DMS-114 > 100 µM | M19-MEL > 100 µM | HOP-18 > 100 µM | LXFL 529 > 100 µM | DLD-1 > 100 µM | DMS-273 > 100 µM

CC(=O)O[C@H]1C(=O)[C@@]2(C)C(C(OC(=O)c3ccccc3)[C@]3(O)CC(OC(=O)C(O)C(NC(=O)c4ccccc4)c4ccc(C)cc4)C(C)=C1C3(C)C)[C@]1(OC(C)=O)CO[C@@H]1C[C@@H]2O (some centres not stated)
active: KM-20L2 0.031 µM | DMS-114 0.0197 µM | M19-MEL 0.0195 µM | LXFL 529 0.0199 µM | DLD-1 0.186 µM | XF498 0.0025 µM | DMS-273 0.0123 µM
inactive: HOP-18 4.01 µM

O=C(NC1CCCC1=O)c1ccccc1 (configuration not stated)
inactive: RXF 631 > 100 µM | KM-20L2 > 100 µM | DMS-114 > 100 µM | M19-MEL > 100 µM | DLD-1 > 100 µM | XF498 > 100 µM | DMS-273 > 100 µM

Nc1nc(=O)n([C@@H]2CC[C@H](CO)O2)cc1F
inactive: KM-20L2 > 100 µM | DMS-114 > 100 µM | HOP-18 > 100 µM | LXFL 529 > 100 µM | DLD-1 > 100 µM | DMS-273 > 100 µM

CC(=O)Oc1ccc2c(c1)C(=O)c1nc(C)c(C)nc1C2=O
inactive: RXF 631 30.5 µM | KM-20L2 34 µM | DMS-114 34.8 µM | M19-MEL 4.61 µM | HOP-18 > 83.2 µM | LXFL 529 > 51.8 µM | DLD-1 42.9 µM | XF498 43.9 µM | DMS-273 > 73.8 µM

Brc1ccc(-c2cc3c(cc2C2SCCS2)OCO3)cc1
inactive: KM-20L2 26.7 µM | DMS-114 23.2 µM | M19-MEL 41.7 µM | HOP-18 49.4 µM | LXFL 529 25.4 µM | DLD-1 31.5 µM | XF498 14.2 µM | DMS-273 35.6 µM

Cn1c(=O)n(C2(C)CSC2)c2ccccc21
inactive: KM-20L2 > 100 µM | DMS-114 > 100 µM | M19-MEL > 100 µM | LXFL 529 > 100 µM | DLD-1 > 100 µM | XF498 > 100 µM | DMS-273 > 100 µM

Cc1ccc(S(=O)(=O)N/N=C/CN2C(=O)c3ccccc3C2=O)cc1
inactive: KM-20L2 > 100 µM | DMS-114 > 100 µM | M19-MEL > 100 µM | LXFL 529 > 100 µM | DLD-1 > 100 µM | XF498 > 100 µM | DMS-273 > 100 µM

Nc1ncn(C2C=C(CO)C(O)C2O)c(=O)n1 (configuration not stated)
inactive: RXF 631 47.6 µM | KM-20L2 66.1 µM | M19-MEL > 100 µM | HOP-18 > 100 µM | LXFL 529 > 100 µM | DLD-1 63.5 µM | DMS-273 > 100 µM

CNC(=O)C1CCc2nnc(-c3ccccc3)n21 (configuration not stated)
inactive: RXF 631 > 100 µM | KM-20L2 > 100 µM | DMS-114 > 100 µM | M19-MEL > 100 µM | HOP-18 > 100 µM | LXFL 529 > 100 µM | DLD-1 > 100 µM | DMS-273 > 100 µM

CC(C)(C)C1=CC(CCC(=O)Nc2ccccc2[N+](=O)[O-])=NC(S)N1 (configuration not stated)
inactive: RXF 631 > 100 µM | KM-20L2 > 100 µM | DMS-114 > 100 µM | M19-MEL > 100 µM | HOP-18 > 100 µM | LXFL 529 > 100 µM | DLD-1 > 100 µM

COc1cc(C2C(Cl)C(=O)N2NC(=O)c2ccc(N)cc2)ccc1O (configuration not stated)
inactive: KM-20L2 63.7 µM | M19-MEL 55.5 µM | LXFL 529 16.6 µM | DLD-1 29.4 µM | XF498 31.3 µM | DMS-273 47.5 µM

NC(=O)N=C(N(Cc1ccccc1)Cc1ccccc1)N(Cc1ccccc1)Cc1ccccc1
inactive: KM-20L2 2.69 µM | M19-MEL > 100 µM | LXFL 529 4.8 µM | DLD-1 4.83 µM | DMS-273 3.41 µM

CN(Cc1cnc2nc(N)nc(N)c2n1)c1ccc(C(=O)N[C@@H](CCC(=O)O)C(=O)O)cc1 [METHOTREXATE]
active: KM-20L2 0.044 µM | DMS-114 0.0288 µM | M19-MEL 0.424 µM | LXFL 529 0.0336 µM | DLD-1 0.0356 µM | DMS-273 0.0308 µM
inactive: HOP-18 15.9 µM | XF498 68.5 µM

COc1cc(NS(C)(=O)=O)ccc1Nc1c2ccccc2nc2ccccc12 [AMSACRINE]
active: RXF 631 0.509 µM | DMS-114 0.184 µM | HOP-18 0.7 µM | DMS-273 0.0659 µM
inactive: KM-20L2 1.45 µM | M19-MEL 1.89 µM | LXFL 529 3.32 µM | DLD-1 2.79 µM

CC(c1ccc2c(c1)CCC1C2CC2OC23CC=CC(=O)[C@]13C)C1C[C@]2(C)O[C@]2(C)[C@H](O)O1 (some centres not stated)
active: DMS-114 0.429 µM
inactive: KM-20L2 34.8 µM | M19-MEL 34.4 µM | LXFL 529 10.6 µM | XF498 56.9 µM | DMS-273 21.7 µM

O=C(O)c1cc(Cl)cc(NC(=O)C(Cl)Cl)c1Cl
inactive: RXF 631 > 100 µM | KM-20L2 > 100 µM | DMS-114 > 100 µM | M19-MEL > 100 µM | HOP-18 > 100 µM | LXFL 529 > 100 µM | DLD-1 > 100 µM | XF498 > 100 µM | DMS-273 > 100 µM

CC(=O)Nc1ccc(/C=C/C(=O)c2sc(-c3nc(C)c(C(=O)/C=C/c4ccc(NC(C)=O)cc4)s3)nc2C)cc1
inactive: RXF 631 > 100 µM | KM-20L2 > 100 µM | DMS-114 > 100 µM | M19-MEL > 100 µM | LXFL 529 > 100 µM | DLD-1 > 100 µM | XF498 > 100 µM | DMS-273 > 100 µM

Cc1ccc(N2C(=O)/C(=C/c3ccc(N(CCC#N)CCC#N)cc3C)N=C2c2cc([N+](=O)[O-])ccc2Cl)cc1
inactive: RXF 631 > 100 µM | DMS-114 75.2 µM | M19-MEL > 100 µM | HOP-18 > 100 µM | LXFL 529 > 100 µM | DLD-1 > 100 µM | DMS-273 > 100 µM

O=[N+]([O-])c1ccc(Cl)c(C2SCc3nc4ccccc4n32)c1 (configuration not stated)
inactive: DMS-114 37 µM | M19-MEL 29.6 µM | HOP-18 5.87 µM | LXFL 529 34.8 µM | DLD-1 45.8 µM | DMS-273 22.9 µM

COc1ccc(/C=C2\CCc3ccccc3C2=O)cc1OC
inactive: KM-20L2 30.8 µM | DMS-114 17.1 µM | M19-MEL 30.1 µM | HOP-18 33 µM | LXFL 529 25.7 µM | DLD-1 21.9 µM | XF498 17.7 µM
